# Measurements taken from ChEMBL document CHEMBL5385861, “Development of novel hydrazidoarylaminopyrimidine-based BTK/FLT3 dual inhibitors with potent in vivo anti-hematological malignancies effects” (Eur J Med Chem, 2023).
# Key:
# [1] = target: RAF proto-oncogene serine/threonine-protein kinase (Homo sapiens) (UniProt P04049); assay: Inhibition of c-RAF (unknown origin) at 0.2 uM incubated for 40 mins by radiometric kinase assay relative to control
# [2] = target: Tyrosine-protein kinase CSK (Homo sapiens) (UniProt P41240); assay: Inhibition of CSK (unknown origin) at 0.2 uM incubated for 40 mins by radiometric kinase assay relative to control
# [3] = target: Epidermal growth factor receptor (Homo sapiens) (UniProt P00533); assay: Inhibition of EGFR (unknown origin) at 0.2 uM incubated for 40 mins by radiometric kinase assay relative to control
# [4] = target: Vascular endothelial growth factor receptor 1 (Homo sapiens) (UniProt P17948); assay: Inhibition of FLT1 (unknown origin) at 0.2 uM incubated for 40 mins by radiometric kinase assay relative to control
# Vascular endothelial growth factor receptor 1 (Homo sapiens), sequence (P17948 whole entry): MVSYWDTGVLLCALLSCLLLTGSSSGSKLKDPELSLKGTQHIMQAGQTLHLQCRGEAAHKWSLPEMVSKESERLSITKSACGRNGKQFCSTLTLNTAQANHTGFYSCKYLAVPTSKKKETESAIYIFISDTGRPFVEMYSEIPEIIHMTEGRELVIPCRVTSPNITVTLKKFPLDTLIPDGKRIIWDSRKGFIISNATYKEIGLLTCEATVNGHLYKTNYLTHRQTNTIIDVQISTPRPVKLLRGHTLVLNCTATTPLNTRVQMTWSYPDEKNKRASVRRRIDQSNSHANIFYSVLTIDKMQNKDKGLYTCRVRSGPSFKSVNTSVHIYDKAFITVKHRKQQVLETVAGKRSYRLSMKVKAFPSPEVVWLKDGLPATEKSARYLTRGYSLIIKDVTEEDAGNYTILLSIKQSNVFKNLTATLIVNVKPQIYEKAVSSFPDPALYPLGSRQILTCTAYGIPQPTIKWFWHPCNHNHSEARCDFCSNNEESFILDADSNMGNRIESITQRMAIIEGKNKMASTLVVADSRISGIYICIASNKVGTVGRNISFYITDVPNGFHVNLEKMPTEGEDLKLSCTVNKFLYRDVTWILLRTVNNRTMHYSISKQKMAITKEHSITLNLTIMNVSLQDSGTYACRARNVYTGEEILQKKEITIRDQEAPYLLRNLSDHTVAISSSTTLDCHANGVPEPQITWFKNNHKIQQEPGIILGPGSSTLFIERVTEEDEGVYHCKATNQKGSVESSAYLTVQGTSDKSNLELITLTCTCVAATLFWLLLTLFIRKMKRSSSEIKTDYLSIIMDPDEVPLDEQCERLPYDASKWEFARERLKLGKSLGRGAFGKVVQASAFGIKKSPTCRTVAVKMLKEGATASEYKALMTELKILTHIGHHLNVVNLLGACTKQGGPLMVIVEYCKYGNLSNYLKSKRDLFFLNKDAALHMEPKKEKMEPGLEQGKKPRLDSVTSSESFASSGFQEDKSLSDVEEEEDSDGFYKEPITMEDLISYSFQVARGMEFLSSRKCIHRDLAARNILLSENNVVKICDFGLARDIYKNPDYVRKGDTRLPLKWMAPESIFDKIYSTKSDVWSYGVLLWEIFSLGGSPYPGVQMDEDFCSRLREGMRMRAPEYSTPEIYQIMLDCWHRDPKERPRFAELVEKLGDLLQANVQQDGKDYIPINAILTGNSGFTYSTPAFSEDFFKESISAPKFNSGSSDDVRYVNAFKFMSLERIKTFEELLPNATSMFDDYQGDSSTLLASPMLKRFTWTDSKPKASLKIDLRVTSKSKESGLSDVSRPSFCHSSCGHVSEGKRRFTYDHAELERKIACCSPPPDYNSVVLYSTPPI
# [5] = system: Receptor-type tyrosine-protein kinase FLT3 (Homo sapiens), P36888 [D835Y]; assay: Inhibition of FLT3 D835Y mutant (unknown origin) at 0.2 uM incubated for 40 mins by radiometric kinase assay relative to control
# [6] = target: Inhibitor of nuclear factor kappa-B kinase subunit beta (Homo sapiens) (UniProt O14920); assay: Inhibition of IKKbeta (unknown origin) at 0.2 uM incubated for 40 mins by radiometric kinase assay relative to control
# [7] = target: Tyrosine-protein kinase ITK/TSK (Homo sapiens) (UniProt Q08881); assay: Inhibition of ITK (unknown origin) at 0.2 uM incubated for 40 mins by radiometric kinase assay relative to control
# [8] = target: Serine/threonine-protein kinase pim-1 (Homo sapiens) (UniProt P11309); assay: Inhibition of PIM-1 (unknown origin) at 0.2 uM incubated for 40 mins by radiometric kinase assay relative to control
# Serine/threonine-protein kinase pim-1 (Homo sapiens), sequence (P11309 whole entry, looked up): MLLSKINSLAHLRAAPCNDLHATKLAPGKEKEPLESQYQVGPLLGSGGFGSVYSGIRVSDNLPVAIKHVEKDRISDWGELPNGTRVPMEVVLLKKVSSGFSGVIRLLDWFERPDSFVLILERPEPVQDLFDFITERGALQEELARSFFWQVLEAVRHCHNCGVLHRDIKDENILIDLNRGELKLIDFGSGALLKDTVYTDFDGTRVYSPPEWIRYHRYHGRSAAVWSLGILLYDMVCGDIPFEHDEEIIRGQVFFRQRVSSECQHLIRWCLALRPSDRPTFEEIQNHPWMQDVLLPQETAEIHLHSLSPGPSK
# [9] = target: Serine/threonine-protein kinase PLK1 (Homo sapiens) (UniProt P53350); assay: Inhibition of PLK1 (unknown origin) at 0.2 uM incubated for 40 mins by radiometric kinase assay relative to control
# Serine/threonine-protein kinase PLK1 (Homo sapiens), sequence (P53350 whole entry): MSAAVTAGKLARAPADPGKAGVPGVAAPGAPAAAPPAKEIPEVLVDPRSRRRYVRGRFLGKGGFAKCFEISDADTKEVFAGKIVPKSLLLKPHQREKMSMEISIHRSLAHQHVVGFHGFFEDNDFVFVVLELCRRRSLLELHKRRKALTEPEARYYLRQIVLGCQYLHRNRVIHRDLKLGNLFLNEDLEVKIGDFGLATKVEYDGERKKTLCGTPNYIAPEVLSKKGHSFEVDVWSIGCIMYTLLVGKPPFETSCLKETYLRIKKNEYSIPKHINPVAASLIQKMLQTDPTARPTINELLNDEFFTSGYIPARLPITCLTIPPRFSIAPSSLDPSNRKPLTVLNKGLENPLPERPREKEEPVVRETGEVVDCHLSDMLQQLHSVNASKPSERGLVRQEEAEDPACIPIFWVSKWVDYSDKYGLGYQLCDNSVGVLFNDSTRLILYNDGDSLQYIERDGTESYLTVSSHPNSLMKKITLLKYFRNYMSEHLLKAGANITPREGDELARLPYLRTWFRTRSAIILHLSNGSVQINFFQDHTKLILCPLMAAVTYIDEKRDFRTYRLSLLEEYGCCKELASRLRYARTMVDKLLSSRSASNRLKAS
# [10] = target: Tyrosine-protein kinase SYK (Homo sapiens) (UniProt P43405); assay: Inhibition of SYK (unknown origin) at 0.2 uM incubated for 40 mins by radiometric kinase assay relative to control
# [11] = target: Mitogen-activated protein kinase kinase kinase 7 (Homo sapiens) (UniProt O43318); assay: Inhibition of TAK1 (unknown origin) at 0.2 uM incubated for 40 mins by radiometric kinase assay relative to control
# Mitogen-activated protein kinase kinase kinase 7 (Homo sapiens), sequence (O43318 whole entry): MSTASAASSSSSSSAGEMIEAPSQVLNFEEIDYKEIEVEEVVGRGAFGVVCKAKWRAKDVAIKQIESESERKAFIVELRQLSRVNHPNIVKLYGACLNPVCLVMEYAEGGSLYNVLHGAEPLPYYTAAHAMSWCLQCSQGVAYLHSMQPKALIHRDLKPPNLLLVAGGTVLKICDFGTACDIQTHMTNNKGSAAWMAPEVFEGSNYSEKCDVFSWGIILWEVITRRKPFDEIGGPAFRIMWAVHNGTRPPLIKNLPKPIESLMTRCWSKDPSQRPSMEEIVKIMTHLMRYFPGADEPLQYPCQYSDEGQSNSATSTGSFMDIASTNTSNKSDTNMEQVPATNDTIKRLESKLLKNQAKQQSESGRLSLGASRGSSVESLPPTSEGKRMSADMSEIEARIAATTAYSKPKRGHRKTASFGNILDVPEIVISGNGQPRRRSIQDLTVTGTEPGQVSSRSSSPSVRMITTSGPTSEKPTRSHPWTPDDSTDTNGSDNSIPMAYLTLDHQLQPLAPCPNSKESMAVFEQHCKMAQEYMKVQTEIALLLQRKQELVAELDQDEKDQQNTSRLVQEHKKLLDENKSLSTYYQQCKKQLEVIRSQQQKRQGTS
# [12] = target: Death-associated protein kinase 3 (Homo sapiens) (UniProt O43293); assay: Inhibition of ZIPK (unknown origin) at 0.2 uM incubated for 40 mins by radiometric kinase assay relative to control
# Death-associated protein kinase 3 (Homo sapiens), sequence (O43293 whole entry, looked up): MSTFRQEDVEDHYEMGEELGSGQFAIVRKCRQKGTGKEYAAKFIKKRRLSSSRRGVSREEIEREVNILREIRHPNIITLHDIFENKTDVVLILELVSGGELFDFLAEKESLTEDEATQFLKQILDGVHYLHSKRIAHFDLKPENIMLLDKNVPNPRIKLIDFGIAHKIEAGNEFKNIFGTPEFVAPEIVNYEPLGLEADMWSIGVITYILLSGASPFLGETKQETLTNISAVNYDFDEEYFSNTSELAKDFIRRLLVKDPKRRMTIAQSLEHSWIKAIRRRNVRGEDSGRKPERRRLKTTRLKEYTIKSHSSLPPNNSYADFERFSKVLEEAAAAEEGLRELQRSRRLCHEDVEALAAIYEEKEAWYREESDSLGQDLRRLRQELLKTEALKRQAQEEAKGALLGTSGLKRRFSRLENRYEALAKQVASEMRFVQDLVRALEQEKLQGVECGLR
# MV4-11 [13] = assay: Potency index, ratio of spebrutinib IC50 to test compound IC50 for antiproliferative activity against human MV4-11 cells; type: functional
# MV4-11 [14] = assay: Potency index, ratio of ibrutinib IC50 to test compound IC50 for antiproliferative activity against human MV4-11 cells; type: functional
# MV4-11 [15] = assay: Potency index, ratio of sorafenib IC50 to test compound IC50 for antiproliferative activity against human MV4-11 cells; type: functional
# MOLT-4 = assay: Potency index, ratio of sorafenib IC50 to test compound IC50 for antiproliferative activity against human MOLT-4 cells; type: functional
# [16] = target: Tyrosine-protein kinase BTK (Homo sapiens, UniProt Q06187); assay: Inhibition of BTK phosphorylation in human JeKo-1 cells incubated for 72 hrs by Western blot analysis; type: cell-based; settings: dose 30-750 nM
# Tyrosine-protein kinase BTK, sequence (Q06187 whole entry): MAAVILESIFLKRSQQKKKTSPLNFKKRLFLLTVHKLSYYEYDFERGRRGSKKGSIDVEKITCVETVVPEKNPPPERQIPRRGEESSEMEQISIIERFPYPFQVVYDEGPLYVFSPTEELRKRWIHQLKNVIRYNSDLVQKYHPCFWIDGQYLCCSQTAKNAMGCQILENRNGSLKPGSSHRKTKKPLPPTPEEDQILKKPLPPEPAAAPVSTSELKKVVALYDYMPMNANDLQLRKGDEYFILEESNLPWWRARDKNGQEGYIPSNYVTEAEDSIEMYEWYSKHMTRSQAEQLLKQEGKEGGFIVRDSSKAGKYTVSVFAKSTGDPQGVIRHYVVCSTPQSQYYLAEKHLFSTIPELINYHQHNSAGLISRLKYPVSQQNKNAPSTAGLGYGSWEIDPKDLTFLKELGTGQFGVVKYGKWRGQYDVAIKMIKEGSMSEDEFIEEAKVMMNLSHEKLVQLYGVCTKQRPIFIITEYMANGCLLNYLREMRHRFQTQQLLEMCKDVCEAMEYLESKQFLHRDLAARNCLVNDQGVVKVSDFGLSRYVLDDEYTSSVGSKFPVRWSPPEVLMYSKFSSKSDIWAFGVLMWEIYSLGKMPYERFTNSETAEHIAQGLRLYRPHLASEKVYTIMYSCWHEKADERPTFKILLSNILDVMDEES
# [17] = target: Receptor-type tyrosine-protein kinase FLT3 (Homo sapiens) (UniProt P36888); assay: Inhibition of FLT3 phosphorylation in human JeKo-1 cells incubated for 72 hrs by Western blot analysis; type: cell-based; settings: dose 30-750 nM
# JeKo-1 [18] = assay: Induction of apoptosis in human JeKo-1 cells assessed as early apoptotic cells at 30 nM incubated for 72 hrs by Annexin VFITC/PI staining based flow cytometry analysis (reference value: 3.10%); type: functional
# JeKo-1 [19] = assay: Induction of apoptosis in human JeKo-1 cells assessed as viable cells at 150 nM incubated for 72 hrs by Annexin VFITC/PI staining based flow cytometry analysis (reference value: 94.81%); type: functional; settings: read-out: Activity
# JeKo-1 [20] = assay: Induction of apoptosis in human JeKo-1 cells assessed as early apoptotic cells at 150 nM incubated for 72 hrs by Annexin VFITC/PI staining based flow cytometry analysis (reference value: 3.10%); type: functional
# JeKo-1 [21] = assay: Induction of apoptosis in human JeKo-1 cells assessed as late apoptotic cells at 150 nM incubated for 72 hrs by Annexin VFITC/PI staining based flow cytometry analysis (reference value: 1.42%); type: functional
# JeKo-1 [22] = assay: Induction of apoptosis in human JeKo-1 cells assessed as viable cells at 750 nM incubated for 72 hrs by Annexin VFITC/PI staining based flow cytometry analysis (reference value: 94.81%); type: functional; settings: Homo sapiens, JeKo-1, read-out: Activity
# [23] = Acute toxicity in ICR mouse assessed as animal survival at 585.9 mg/kg, ip measured for 2 weeks; type: organism-based; settings: in vivo
# [24] = Acute toxicity in ICR mouse assessed as animal survival at 240 mg/kg, ip measured for 2 weeks; type: organism-based; settings: in vivo
# [25] = Acute toxicity in ip dosed ICR mouse assessed as change in routine blood analysis at 200 mg/kg, ip measured for 2 weeks; type: organism-based; settings: in vivo, 336 h
# PBMC = assay: Cytotoxicity against human PBMC cells assessed as reduction in cell viability; type: toxicity, cell-based
# JeKo-1 [26] = assay: Antitumor activity against human JeKo-1 cells xenografted in ip dosed NOD/SCID mouse assessed as suppression of tumor growth measured for 16 days; type: functional, organism-based; settings: dose 25-50 mg/kg, time 16.0 day
# JeKo-1 [27] = assay: Antitumor activity against human JeKo-1 cells xenografted NOD/SCID mouse assessed as tumor growth inhibition at 50 mg/kg, ip measured for 16 days; type: functional; settings: JeKo-1, 384 h, time 16 day, read-out: TGI
# [28] = Toxicity in NOD/SCID mouse xenografted with human JeKo-1 cells assessed as abnormal activity at 25 to 50 mg/kg, ip measured for 16 days; type: organism-based; settings: in vivo, 384 h, dose 25-50 mg/kg, time 16 day
# JeKo-1 [29] = assay: Antitumor activity against human JeKo-1 cells xenografted NOD/SCID mouse assessed as reduction in tumor weight at 50 mg/kg, ip measured for 16 days; type: functional; settings: time 16 day
# MV4-11 [30] = assay: Antitumor activity against human MV4-11 cells xenografted in ip dosed NOD/SCID mouse assessed as suppression of tumor growth administered once daily for 21 days; type: functional, organism-based; settings: dose 10-20 mg/kg, time 21.0 day
# MV4-11 [31] = assay: Antitumor activity against human MV4-11 cells xenografted NOD/SCID mouse assessed as reduction in tumor weight at 10 mg/kg, ip administered once daily for 21 days; type: functional; settings: time 21 day
# K562 = assay: cells; settings: Homo sapiens, K562, 72 h
# Description: Antiproliferative activity against human K562 cells assessed as inhibition of cell growth incubated for 72 hrs by CCK8 assay
# in vitro [32] = settings: human, Caco-2
# Description: Apparent permeability across apical to basolateral side in human Caco-2 cells incubated for 120 mins by LC-MS/MS analysis
# in vitro [33] = settings: human, Caco-2; remark: listed apart in the source
# Description: Apparent permeability across basolateral to apical side in human Caco-2 cells incubated for 120 mins by LC-MS/MS analysis
# P-glycoprotein = assay: in vitro; settings: human, Caco-2
# Description: Efflux ratio of apparent permeability across basolateral to apical side over apical to basolateral side in human Caco-2 cells incubated for 120 mins in presence of P-glycoprotein by LC-MS/MS analysis
# RAF proto-oncogene serine/threonine-protein kinase (Homo sapiens), sequence (P04049 whole entry): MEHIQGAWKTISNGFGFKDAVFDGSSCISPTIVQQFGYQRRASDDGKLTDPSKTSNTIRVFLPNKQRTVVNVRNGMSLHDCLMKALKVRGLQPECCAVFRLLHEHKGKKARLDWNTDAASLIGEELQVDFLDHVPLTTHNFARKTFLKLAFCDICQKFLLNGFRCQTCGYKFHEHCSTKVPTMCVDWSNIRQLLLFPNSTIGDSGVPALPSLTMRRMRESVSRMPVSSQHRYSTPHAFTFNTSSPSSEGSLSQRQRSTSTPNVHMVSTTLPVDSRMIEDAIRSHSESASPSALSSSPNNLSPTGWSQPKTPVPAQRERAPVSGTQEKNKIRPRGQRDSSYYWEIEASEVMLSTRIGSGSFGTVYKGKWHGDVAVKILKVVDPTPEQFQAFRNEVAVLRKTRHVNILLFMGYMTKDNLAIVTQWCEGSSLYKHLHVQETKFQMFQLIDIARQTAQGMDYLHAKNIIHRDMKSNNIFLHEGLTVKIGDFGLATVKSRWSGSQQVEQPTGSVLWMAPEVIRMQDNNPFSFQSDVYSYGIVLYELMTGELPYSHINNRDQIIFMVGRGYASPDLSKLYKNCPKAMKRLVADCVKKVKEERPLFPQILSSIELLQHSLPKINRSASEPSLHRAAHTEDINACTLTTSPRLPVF
smiles,measurement,setting,value
CN1CCN(c2ccc(Nc3ncc(F)c(Nc4ccccc4C(=O)NN)n3)cc2)CC1,inhibition,[1],-10%
same,inhibition,[2],6%
same,inhibition,[3],8%
same,inhibition,[4],100%
same,inhibition,[5],101%
same,inhibition,[6],15%
same,inhibition,[7],65%
same,inhibition,[8],28%
same,inhibition,[9],7%
same,inhibition,[10],4%
same,inhibition,[11],26%
same,inhibition,[12],26%
same,Ratio IC50,MV4-11 [13],8
same,Ratio IC50,MV4-11 [14],6
same,Ratio IC50,MV4-11 [15],1.3
same,Ratio IC50,MOLT-4,1.3
same,inhibition,[16],Dose-Dependent Effect
same,inhibition,[17],Dose-Dependent Effect
same,Activity,JeKo-1 [18],12.08%
same,viability at 0.15 µM,JeKo-1 [19],72.4%
same,Activity,JeKo-1 [20],25.6%
same,Activity,JeKo-1 [21],1.65%
same,viability at 0.75 µM,JeKo-1 [22],61.5%
same,survival at 336 h,[23],0%
same,survival at 336 h,[24],100%
same,Activity,[25],Non-Toxic
same,Activity,PBMC,Non-Toxic
same,Activity,JeKo-1 [26],Dose-Dependent Effect
same,inhibition in vivo at 50 mg/kg,JeKo-1 [27],79.8%
same,Activity,[28],Non-Toxic
same,Activity,JeKo-1 [29],0.18 g
same,Activity,MV4-11 [30],Dose-Dependent Effect
same,Activity,MV4-11 [31],0.33 g
same,IC50,K562,930 nM
same,Papp A→B at 2 h,in vitro [32],5.11 ×10⁻⁶ cm/s
same,Papp B→A at 2 h,in vitro [33],13.5 ×10⁻⁶ cm/s
same,efflux ratio at 2 h,P-glycoprotein,2.64
